Assays:
[1] = tested on: DNA extracted from breast tumor or adjacent tissue; assay: Artifactual CEdG formation during DNA extraction from human breast tumor and adjacent tissue, with carbonyl scavenger; settings: 10 mM D-penicillamine in two aliquots during cell lysis/DNA isolation and hydrolysis/dephosphorylation
Description: Breast tumor and adjacent normal tissue were obtained from the frozen tumor bank of the City of Hope Pathology Core. A pea-sized section (˜100 mg) of tissue was minced and suspended in 1.2 mL of digestion buffer (100 mM NaCl, 10 mM Tris HCl, pH 8, 25 mM EDTA, pH 8, 0.5% SDS, 0.2 mg/mL proteinase K, 10 mM D-penicillamine) and incubated at 50° C. in a water bath for 12-18 h. DNA was then extracted using an equivalent volume of phenol/chloroform/isoamyl alcohol (25:24:1). The aqueous fraction was separated and 0.5 volumes of ammonium acetate and 2 volumes of 100% ethanol were added. The DNA was spooled, washed twice with 70% ethanol, pelleted, and resuspended in autoclaved 18.2 MΩ water. The enzymatic hydrolysis was carried out as described above.
Levels of CEdG in DNA extracted from either breast tumor or adjacent tissue in the absence of carbonyl scavenger were ˜1.5-2.0-fold higher; however, artifactual formation was inhibited by the addition of 10 mM D-penicillamine in two aliquots during both the cell lysis/DNA isolation and hydrolysis/dephosphorylation steps. ^15N-enriched isotopomers of CEdG differing from the unlabeled adducts by 5 amu were synthesized, which provided sufficient mass resolution for accurate and reproducible quantitation using the stable isotope dilution method.

[2] = Stability of CEdG in acidic solution (acid-catalyzed depurination and sidechain isomerization); type: physicochemical; settings: acidic hydrolysis, 1 M AcOH at 37° C.
Description: A 1.25 mM solution of CEdG-A, B or dG in 100 μL of 1M AcOH (pH 2.4) was stirred at 37° C. Aliquots (10 μl) were removed periodically and added to 40 μL of 2M TEAA (pH 7.0). HPLC product analyses were performed using an Alltech HS HyperPrep 100 BDS C18 8μ column. A gradient of 0 to 4% CH3CN over 5 min was followed by 6.5% CH3CN over 30 min. TEAA (pH 7) was kept constant at 50 mM. The ratio of free base (CEGuanine or Guanine) to intact nucleoside (CEdG or dG) was calculated by integration of the corresponding HPLC peaks (see inset in FIG. 4). The CEG free base was identified as Peak A by ESI-MS in negative ion mode. C8H8O3N5, observed: m/z 222.064; calculated: m/z 222.063.
The chemical stability of CEdG was examined as an important criterion for evaluating its suitability as a quantitative biomarker. Purified stereoisomers of synthetic CEdG were subjected to acidic conditions (1 M AcOH at 37° C.) and the extent of released free base and diastereomer interconversion was monitored by HPLC as a function of time.

calf thymus DNA = assay: Artifactual CEdG formation in calf thymus DNA during workup, with carbonyl scavenger
Description: Calf thymus or tissue-extracted DNA (100 μg) was dissolved in 80 μL of autoclaved 18.2 MΩ H2O containing 20 μL of sodium acetate (100 mM, pH 5.5), 20 μL of 1×TBE, 1.5 μL of 50 mM ZnCl2, and 2.37 μL of a 100 mM AG or D-P stock solution. DNA was denatured at 95° C. for 5 min on a PCR heating block and then brought to 4° C. for 5 min. After equilibration to 45° C., 1.5 μL of 10 U/μL nuclease P1 was added. Alkaline phosphatase (4 μL of 8 U/μL), 1 U of bovine phosphodiesterase, and 14 μL of 100 mM CaCl2 were added after 1 hour, and the hydrolysis/dephosphorylation was continued for another 7 hours. […] DNA concentrations were determined by UV spectroscopy (1 OD260=50 μg/ml) and samples were stored at −80° C. prior to MS analyses. A 5 μL aliquot of digest was diluted to 200 μL and used for quantitation of 2′-deoxyguanosine by HPLC integration using a Beckman C18 reverse phase (25 cm×4.6 mm) column (Fullerton, CA). […]
Commercial grade calf thymus DNA was used as a model substrate for developing a protocol for CEdG quantitation in double-stranded DNA. […] Concentrations of AG from 0.5 to 50 mM were added prior to workup, and CEdG levels were measured in order to determine the optimal concentration required to achieve stable, reproducible levels. […]

SMILES: CC(C)(S)[C@@H](N)C(=O)O [D-penicillamine]
- artifactual CEdG formation [1]: inhibited

SMILES: CC(Nc1nc2c(ncn2[C@H]2C[C@H](O)[C@@H](CO)O2)c(=O)[nH]1)C(=O)O (single isomer, unassigned) [CEdG-A, N^2-(1-carboxyethyl)-2′-deoxyguanosine]
- racemization of the sidechain stereocenter / interconversion of CEdG isomers A and B [2]: No racemization

SMILES: CC(Nc1nc2c(ncn2[C@H]2C[C@H](O)[C@@H](CO)O2)c(=O)[nH]1)C(=O)O (single isomer, unassigned) [CEdG-B, N^2-(1-carboxyethyl)-2′-deoxyguanosine]
- racemization of the sidechain stereocenter / interconversion of CEdG isomers A and B [2]: No racemization

SMILES: N=C(N)NN [AG, aminoguanidine]
- CEdG adduct levels after hydrolysis/dephosphorylation (calf thymus DNA; 10 mM AG added prior to sample processing, without scavenger 60-66 CEdG/10^6 dG): 45-50 CEdG/10^6 guanines
- CEdG levels after mock proteolysis and hydrolysis/dephosphorylation (calf thymus DNA; 10 mM AG in two aliquots, without scavenger 80-100 CEdG/10^6 guanines): drop in measured CEdG levels
